pIC50: −log10 of the molar value.
Columns and labels:
human recombinant FGFR2 = human recombinant FGFR2 (Homo sapiens, UniProt P21802); assay: FGFR family enzymatic activity assay (Caliper-based kinase assay), FGFR2; type: biochemical; conditions: FGFR2 0.1 nM, ATP 75 μM, peptide substrate 1 μM, room temperature 3 h
From the text: (§1) A Caliper-based kinase assay (Caliper Life Sciences, Hopkinton, Mass.) was used to measure inhibition of FGFR family (FGFR1, FGFR2, FGFR3, FGFR4) kinase activity of a compound of Formula (I′) or (I). […] This value is presented as the IC50.

human recombinant FGFR3 = human recombinant FGFR3 (Homo sapiens, UniProt P22607); assay: FGFR family enzymatic activity assay (Caliper-based kinase assay), FGFR3; type: biochemical; conditions: FGFR3 0.9 nM, ATP 120 μM, peptide substrate 1 μM, room temperature 3 h
From the text: as §1

human recombinant FGFR4 = human recombinant FGFR4 (Homo sapiens, UniProt P22455); assay: FGFR family enzymatic activity assay (Caliper-based kinase assay), FGFR4; type: biochemical; conditions: FGFR4 2 nM, ATP 250 μM, peptide substrate 1 μM, room temperature 3 h
From the text: as §1

human recombinant FGFR1 = human recombinant FGFR1 (Homo sapiens, UniProt P11362); assay: FGFR family enzymatic activity assay (Caliper-based kinase assay), FGFR1; type: biochemical; conditions: FGFR1 0.5 nM, ATP 100 μM, peptide substrate 1 μM, room temperature 3 h
From the text: as §1

SNU-16 cells = assay: Inhibition of FGFR2-dependent cell growth (Cell-titer Glo); type: cell-based; conditions: Homo sapiens, SNU16 cells, 72 hrs incubation, cell viability by Cell-titer Glo
Protocol: The cell-based effects of FGFR inhibitors were determined by measuring inhibition of FGFR-dependent cell line growth. […] Percent inhibition of cell growth was calculated as a percentage of untreated cell viability. The percent inhibition was plotted as a function of log compound concentration. The IC50 was then calculated for each compound using Prism software from GraphPad.

Chain of human recombinant FGFR3 (P22607 23-806): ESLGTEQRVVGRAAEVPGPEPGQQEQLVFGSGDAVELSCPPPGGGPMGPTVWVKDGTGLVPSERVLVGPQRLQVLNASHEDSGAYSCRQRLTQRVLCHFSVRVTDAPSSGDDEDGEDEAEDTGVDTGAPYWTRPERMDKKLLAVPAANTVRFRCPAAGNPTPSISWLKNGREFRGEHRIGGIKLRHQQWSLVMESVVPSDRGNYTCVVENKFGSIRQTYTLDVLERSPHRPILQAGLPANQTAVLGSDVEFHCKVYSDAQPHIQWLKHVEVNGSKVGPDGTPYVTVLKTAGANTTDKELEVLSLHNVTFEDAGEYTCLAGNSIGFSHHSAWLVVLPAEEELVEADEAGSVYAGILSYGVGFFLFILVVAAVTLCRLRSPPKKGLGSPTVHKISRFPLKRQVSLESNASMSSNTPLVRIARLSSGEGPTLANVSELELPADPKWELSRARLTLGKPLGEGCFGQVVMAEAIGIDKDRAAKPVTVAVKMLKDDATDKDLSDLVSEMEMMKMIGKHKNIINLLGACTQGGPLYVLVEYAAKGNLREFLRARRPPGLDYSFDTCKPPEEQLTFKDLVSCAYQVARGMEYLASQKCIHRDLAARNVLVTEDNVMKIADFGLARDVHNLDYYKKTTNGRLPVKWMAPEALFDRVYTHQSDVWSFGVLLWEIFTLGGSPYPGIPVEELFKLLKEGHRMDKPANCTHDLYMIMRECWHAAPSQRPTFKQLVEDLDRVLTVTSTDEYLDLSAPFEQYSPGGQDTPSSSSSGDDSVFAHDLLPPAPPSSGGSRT
Chain of human recombinant FGFR4 (P22455 22-802): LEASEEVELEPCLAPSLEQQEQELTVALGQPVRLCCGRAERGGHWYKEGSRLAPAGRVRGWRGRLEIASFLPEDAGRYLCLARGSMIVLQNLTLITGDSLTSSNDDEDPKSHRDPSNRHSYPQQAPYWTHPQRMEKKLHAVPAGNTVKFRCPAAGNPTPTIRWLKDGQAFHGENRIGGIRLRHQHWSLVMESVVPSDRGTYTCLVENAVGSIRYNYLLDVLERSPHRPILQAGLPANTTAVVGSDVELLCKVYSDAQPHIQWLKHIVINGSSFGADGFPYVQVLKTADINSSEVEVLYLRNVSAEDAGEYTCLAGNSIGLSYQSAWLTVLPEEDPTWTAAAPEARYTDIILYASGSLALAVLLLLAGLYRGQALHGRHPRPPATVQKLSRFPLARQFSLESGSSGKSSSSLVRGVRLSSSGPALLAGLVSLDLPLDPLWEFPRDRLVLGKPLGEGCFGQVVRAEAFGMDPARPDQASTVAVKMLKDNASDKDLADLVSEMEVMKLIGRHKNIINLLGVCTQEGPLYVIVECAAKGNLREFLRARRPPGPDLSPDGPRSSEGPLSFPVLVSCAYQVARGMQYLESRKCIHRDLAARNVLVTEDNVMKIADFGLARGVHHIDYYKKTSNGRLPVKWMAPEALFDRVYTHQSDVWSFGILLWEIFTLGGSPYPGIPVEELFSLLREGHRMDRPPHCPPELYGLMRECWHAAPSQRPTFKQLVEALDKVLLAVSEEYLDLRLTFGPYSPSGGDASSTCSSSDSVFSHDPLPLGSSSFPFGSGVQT
Chain of human recombinant FGFR2 (P21802 22-821): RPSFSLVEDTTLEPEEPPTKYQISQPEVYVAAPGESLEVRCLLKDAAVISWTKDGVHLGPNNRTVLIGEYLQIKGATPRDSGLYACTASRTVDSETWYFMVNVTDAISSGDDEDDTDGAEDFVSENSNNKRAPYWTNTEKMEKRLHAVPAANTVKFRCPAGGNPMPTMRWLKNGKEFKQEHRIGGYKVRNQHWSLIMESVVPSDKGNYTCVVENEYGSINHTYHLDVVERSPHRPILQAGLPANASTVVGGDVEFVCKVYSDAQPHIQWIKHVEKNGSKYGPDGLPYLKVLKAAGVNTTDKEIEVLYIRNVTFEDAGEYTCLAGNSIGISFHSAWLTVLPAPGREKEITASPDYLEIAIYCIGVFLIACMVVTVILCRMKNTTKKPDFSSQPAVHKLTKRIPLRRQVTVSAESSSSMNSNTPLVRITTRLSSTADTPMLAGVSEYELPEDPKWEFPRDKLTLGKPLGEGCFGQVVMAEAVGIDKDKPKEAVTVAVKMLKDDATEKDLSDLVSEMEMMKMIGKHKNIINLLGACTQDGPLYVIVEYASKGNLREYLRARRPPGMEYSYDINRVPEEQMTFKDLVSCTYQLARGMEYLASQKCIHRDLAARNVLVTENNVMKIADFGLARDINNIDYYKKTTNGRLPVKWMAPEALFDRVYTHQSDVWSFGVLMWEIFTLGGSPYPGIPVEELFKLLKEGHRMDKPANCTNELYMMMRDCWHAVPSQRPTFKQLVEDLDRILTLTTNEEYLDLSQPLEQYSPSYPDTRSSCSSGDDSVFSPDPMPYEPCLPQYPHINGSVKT
Chain of human recombinant FGFR1 (P11362 22-822): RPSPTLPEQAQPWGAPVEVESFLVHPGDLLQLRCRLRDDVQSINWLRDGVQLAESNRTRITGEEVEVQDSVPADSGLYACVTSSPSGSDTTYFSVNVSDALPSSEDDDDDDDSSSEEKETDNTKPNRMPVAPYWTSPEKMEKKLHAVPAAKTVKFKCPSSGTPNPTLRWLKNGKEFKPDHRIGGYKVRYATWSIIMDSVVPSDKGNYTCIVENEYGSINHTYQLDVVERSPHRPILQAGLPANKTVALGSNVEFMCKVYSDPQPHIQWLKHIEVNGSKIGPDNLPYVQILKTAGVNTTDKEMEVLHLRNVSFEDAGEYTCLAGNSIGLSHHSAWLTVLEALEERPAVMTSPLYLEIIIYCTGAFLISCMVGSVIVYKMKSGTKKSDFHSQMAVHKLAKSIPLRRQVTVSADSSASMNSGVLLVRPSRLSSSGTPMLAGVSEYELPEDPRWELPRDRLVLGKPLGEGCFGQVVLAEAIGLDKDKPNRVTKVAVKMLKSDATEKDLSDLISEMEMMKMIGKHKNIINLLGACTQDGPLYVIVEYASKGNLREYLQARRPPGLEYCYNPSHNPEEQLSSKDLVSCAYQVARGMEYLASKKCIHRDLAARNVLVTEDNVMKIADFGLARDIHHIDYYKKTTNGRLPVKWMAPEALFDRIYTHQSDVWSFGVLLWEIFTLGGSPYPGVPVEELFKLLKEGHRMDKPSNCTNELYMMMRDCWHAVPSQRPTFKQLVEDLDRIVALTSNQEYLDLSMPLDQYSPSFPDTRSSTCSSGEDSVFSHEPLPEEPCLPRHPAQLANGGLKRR

SMILES | pIC50 (human recombinant FGFR2) | pIC50 (human recombinant FGFR3) | pIC50 (human recombinant FGFR4) | pIC50 (human recombinant FGFR1) | pIC50 (SNU-16 cells)
C=CC(=O)Nc1ccc(CCn2c(=O)c(-c3cc(OC)cc(OC)c3Cl)cc3cnc(NCCO)nc32)cc1 [Example 69, N-(4-(2-(6-(2-chloro-3,5-dimethoxyphenyl)-2-((2-hydroxyethyl)amino)-7-oxopyrido[2,3-d]pyrimidin-8(7H)-yl)ethyl)phenyl)acrylamide] | 8.70 | 8.22 | 7.37 |  | 
C=CC(=O)Nc1ccc(CCn2c(=O)c(-c3c(Cl)c(OC)cc(OC)c3Cl)cc3cnc(NC)nc32)nc1 [Example 38, N-(6-(2-(6-(2,6-dichloro-3,5-dimethoxyphenyl)-2-(methylamino)-7-oxopyrido[2,3-d]pyrimidin-8(7H)-yl)ethyl)pyridin-3-yl)acrylamide] | 8.70 | 8.48 | 8.20 | 8.92 | 8.60
C=CC(=O)Nc1ccc(CCn2c(=O)c(-c3cc(OC)cc(OC)c3Cl)cc3cnc(NC(CO)CO)nc32)cc1 [Example 72, N-(4-(2-(6-(2-chloro-3,5-dimethoxyphenyl)-2-((1,3-dihydroxypropan-2-yl)amino)-7-oxopyrido[2,3-d]pyrimidin-8(7H)-yl)ethyl)phenyl)acrylamide] | 8.82 | 8.17 | 7.36 |  | 
C=CC(=O)N1CCCC(CCn2c(=O)c(-c3ccccc3Cl)cc3cnc(NCCCCN(CC)CC)nc32)C1 (stereo not drawn) [Example 2, 8-(2-(1-acryloylpiperidin-3-yl)ethyl)-6-(2-chlorophenyl)-2-(4-(diethylamino)-butylamino)pyrido[2,3-d]pyrimidin-7(8H)-one] | 6.15 | 5.98 | < 5.30 | 6.08 | 
C=CC(=O)Nc1ccc(CCn2c(=O)c(-c3c(Cl)c(OC)cc(OC)c3Cl)cc3cnc(NC4CCN(C)CC4)nc32)cc1 [Example 62, N-(4-(2-(6-(2,6-dichloro-3,5-dimethoxyphenyl)-2-((1-methylpiperidin-4-yl)amino)-7-oxopyrido[2,3-d]pyrimidin-8(7H)-yl)ethyl)phenyl)acrylamide] | 8.70 | 8.00 | 7.27 | 9.15 | 8.68
C=CC(=O)Nc1cccc(Cn2c(=O)c(-c3c(Cl)c(OC)cc(OC)c3Cl)cc3cnc(NCCCCN(CC)CC)nc32)c1 [Example 6, N-(3-[[6-(2,6-dichloro-3,5-dimethoxyphenyl)-2-[[4-(diethylamino)butyl]-amino]-7-oxo-7H,8H-pyrido[2,3-d]pyrimidin-8-yl]methyl]phenyl)acrylamide] | 9.00 | 8.51 | 7.48 | 8.89 | 
C=CC(=O)Nc1ccc(CCn2c(=O)c(-c3cc(OC)cc(OC)c3Cl)cc3cnc(NCCN4CCN(C(C)=O)CC4)nc32)cc1 [Example 66, N-(4-(2-(2-((2-(4-acetylpiperazin-1-yl)ethyl)amino)-6-(2-chloro-3,5-dimethoxy-phenyl)-7-oxopyrido[2,3-d]pyrimidin-8(7H)-yl)ethyl)phenyl)acrylamide] | 8.70 | 8.20 | 7.39 |  | 
C=CC(=O)Nc1cccc(CCn2c(=O)c(-c3cc(OC)cc(OC)c3)cc3cnc(NC)nc32)c1 [Example 8, N-(3-(2-(6-(3,5-dimethoxyphenyl)-2-(methylamino)-7-oxopyrido[2,3-d]pyrimidin-8(7H)-yl)ethyl)phenyl)acrylamide] |  | 7.72 |  | 7.51 | 7.08
C=CC(=O)Nc1ccc(CCn2c(=O)c(-c3cc(OC)cc(OC)c3Cl)cc3cnc(NC)nc32)cn1 [Example 16, N-(5-(2-(6-(2-chloro-3,5-dimethoxyphenyl)-2-(methylamino)-7-oxopyrido[2,3-d]pyrimidin-8(7H)-yl)ethyl)pyridin-2-yl)acrylamide] | 8.77 | 8.64 | 8.16 |  | 
C=CC(=O)Nc1ccc(CCn2c(=O)c(-c3cc(OC)cc(OC)c3Cl)cc3cnc(NCCN4CCOCC4)nc32)cn1 [Example 31, N-(5-(2-(6-(2-chloro-3,5-dimethoxyphenyl)-2-(2-morpholinoethylamino)-7-oxopyrido[2,3-d]pyrimidin-8(7H)-yl)ethyl)pyridin-2-yl)acrylamide] |  |  |  | 8.85 | 8.44
C=CC(=O)Nc1ccc(CCn2c(=O)c(-c3cc(OC)cc(OC)c3Cl)cc3cnc(NC)nc32)cc1 [Example 13, N-(4-(2-(6-(2-chloro-3,5-dimethoxyphenyl)-2-(methylamino)-7-oxopyrido[2,3-d]pyrimidin-8(7H)-yl)ethyl)phenyl)acrylamide] | 8.85 | 8.64 | 7.59 |  | 
CNc1ncc2cc(-c3cc(OC)cc(OC)c3Cl)c(=O)n(CCc3ccc(NC(=O)/C=C/CN(C)C)cc3)c2n1 [Example 22, (E)-N-(4-(2-(6-(2-chloro-3,5-dimethoxyphenyl)-2-(methylamino)-7-oxopyrido[2,3-d]pyrimidin-8(7H)-yl)ethyl)phenyl)-4-(dimethylamino)but-2-enamide] |  |  |  | 9.40 | 9.00
C=CC(=O)Nc1ccc(CCn2c(=O)c(-c3c(Cl)c(OC)cc(OC)c3Cl)cc3cnc(NC(C)C)nc32)nc1 [Example 80, N-(6-(2-(6-(2,6-dichloro-3,5-dimethoxyphenyl)-2-(isopropylamino)-7-oxopyrido[2,3-d]pyrimidin-8(7H)-yl)ethyl)pyridin-3-yl)acrylamide] |  |  |  | 9.30 | 8.02
C=CC(=O)Nc1ccc(CCn2c(=O)c(-c3c(Cl)c(OC)cc(OC)c3Cl)cc3cnc(NC4CCOCC4)nc32)nc1 [Example 81, N-(6-(2-(6-(2,6-dichloro-3,5-dimethoxyphenyl)-7-oxo-2-((tetrahydro-2H-pyran-4-yl)amino)-pyrido[2,3-d]pyrimidin-8(7H)-yl)ethyl)pyridin-3-yl)acrylamide] |  |  |  | 9.52 | 8.39
C=CC(=O)Nc1cccc(CCn2c(=O)c(-c3cc(OC)cc(OC)c3F)cc3cnc(NCCN4CCOCC4)nc32)c1 [Example 52, N-(3-(2-(6-(2-fluoro-3,5-dimethoxyphenyl)-2-(2-morpholin-4-ylethyllamino)-7-oxopyrido[2,3-d]pyrimidin-8(7H)-yl)ethyl)phenyl)acrylamide] |  |  |  | 8.27 | 7.82
C=CC(=O)Nc1ccc(CCn2c(=O)c(-c3cc(OC)cc(OC)c3Cl)cc3cnc(NCC4CC4)nc32)nc1 [Example 103, N-(6-(2-(6-(2-chloro-3,5-dimethoxyphenyl)-2-((cyclopropylmethyl)amino)-7-oxopyrido[2,3-d]pyrimidin-8(7H)-yl)ethyl)pyridin-3-yl)acrylamide] |  |  |  | 9.22 | 8.44
C=CC(=O)Nc1ccc(CCn2c(=O)c(-c3c(Cl)c(OC)cc(OC)c3Cl)cc3cnc(NCC4CC4)nc32)cc1 [Example 90, N-(4-(2-(2-((cyclopropylmethyl)amino)-6-(2,6-dichloro-3,5-dimethoxyphenyl)-7-oxopyrido[2,3-d]pyrimidin-8(7H)-yl)ethyl)phenyl)acrylamide] |  |  |  | 8.74 | 8.34
C=CC(=O)Nc1ccc(CCn2c(=O)c(-c3cc(OC)cc(OC)c3F)cc3cnc(NCCN4CCOCC4)nc32)cc1F [Example 53, N-(2-fluoro-4-(2-(6-(2-fluoro-3,5-dimethoxyphenyl)-2-((2-morpholinoethyl)amino)-7-oxopyrido[2,3-d]pyrimidin-8(7H)-yl)ethyl)phenyl)acrylamide] |  |  |  | 7.54 | 7.15
C=CC(=O)Nc1ccc(CCn2c(=O)c(-c3cc(OC)cc(OC)c3Cl)cc3cnc(NCCN4CCOCC4)nc32)cc1F [Example 54, N-(4-(2-(6-(2-chloro-3,5-dimethoxyphenyl)-2-((2-morpholinoethyl)amino)-7-oxopyrido[2,3-d]pyrimidin-8(7H)-yl)ethyl)-2-fluorophenyl)acrylamide] |  |  |  | 7.93 | 7.48
C=CC(=O)Nc1ccc(CCn2c(=O)c(-c3c(Cl)c(OC)cc(OC)c3Cl)cc3cnc(NC4CCOCC4)nc32)cc1 [Example 89, N-(4-(2-(6-(2,6-dichloro-3,5-dimethoxyphenyl)-7-oxo-2-((tetrahydro-2H-pyran-4-yl)amino)pyrido[2,3-d]pyrimidin-8(7H)-yl)ethyl)phenyl)acrylamide] |  |  |  | 9.70 | 8.32
C=CC(=O)Nc1cccc(Cn2c(=O)c(-c3cc(OC)cc(OC)c3Cl)cc3cnc(NCCN4CCOCC4)nc32)c1 [Example 102, N-(3-((6-(2-chloro-3,5-dimethoxyphenyl)-2-((2-morpholinoethyl)amino)-7-oxopyrido[2,3-d]pyrimidin-8(7H)-yl)methyl)phenyl)acrylamide] |  |  |  | 9.00 | 8.41
C=CC(=O)Nc1ccc(CCn2c(=O)c(-c3c(Cl)c(OC)cc(OC)c3Cl)cc3cnc(NC(C)(CO)CO)nc32)cc1 [Example 91, N-(4-(2-(6-(2,6-dichloro-3,5-dimethoxyphenyl)-2-((1,3-dihydroxy-2-methylpropan-2-yl)amino)-7-oxopyrido[2,3-d]pyrimidin-8(7H)-yl)ethyl)phenyl)acrylamide] |  |  |  | 9.22 | 8.54
